Experimental data reported in patent US11123434B2, “Drug delivery device and its method of manufacture” (City University of Hong Kong, priority 2017, dated 2021).

Test: Drug release from loaded sponges at 37° C. in deionized water
Type: physicochemical
Conditions: comparison among model drugs MB, ORO, TH
Text: To maintain constant therapeutic levels for prolonged periods and to reduce the total dose of administration, the ability of a carrier to prolong drug release is required.

CN(C)[C@@H]1C(=O)C(C(N)=O)=C(O)[C@@]2(O)C(=O)C3=C(O)c4c(O)cccc4[C@@](C)(O)[C@H]3C[C@@H]12.Cl [TH]
drug release sustainability: more sustainable as compared to that of ORO
